Results published in patent US20260191999A1, “COMPOUNDS AND THEIR USE” (KING'S COLLEGE LONDON, priority 2022, published 2026).
pEC50: −log10 of the molar value.

How the values were obtained:
[1] = test system: SKOV3-TRip2 and SKOV3-ip1 cells; assay: Cell uptake of radiotracer, drug-resistant vs drug-sensitive SKOV3 cells; assay type: cell-based, human
Protocol: For cell uptake studies SKOV3-ip1 and SKOV3-TRip2, A549-WT, A549-KO-ALDH1A1, HEK293-WT and HEK293-ALDH1A1 cells were plated in 6 well plates 24 h prior to the studies, as described above (Western Blotting). One mL of fresh media containing 0.37 MBq of PQM-H-001 and 6 KBq PQM-H-002 was added to each well for the desired incubation time. At 40 min, plates were placed on ice, washed three times with ice-cold PBS to remove exogenous radioactivity and lysed in RIPA buffer ([…]; Fisher Scientific Ltd).
For all cell uptake and efflux study decay-corrected radioactivity in lysates was determined on a gamma counter ([…]; Wallac 1282 CompuGamma counter), with the remaining cell lysate centrifuged (21,000×g for 10 min at 4° C.) and the supernatant used to determine protein concentration following radioactive decay using a Pierce BCA assay. To quantify radiotracer uptake in cells, three standard solutions of the radioactivity-containing medium were counted on the gamma counter. Data were expressed as a percentage of total radioactivity administered to cells per mg of protein.
Next, the time-dependent uptake of the of the radiotracers PQM-H-001 ([^18F]PQM-H-001) and PQM-H-002 ([^125I]PQM-H-002) was profiled in drug-resistant SKOV3-Trip2 and drug-sensitive SKOV3-ip1 cell lines (Pereira, R., et al. 2019).

Ex vivo biodistribution = assay type: in vivo, BALB/c-nu/nu mice; conditions: 90 min post radiotracer injection
Protocol: PQM-H-001 distribution was further evaluated ex vivo 90 min post radiotracer injection. […] Ex-vivo distribution of PQM-H-001 was performed after PET imaging (section: In Vivo Tumour Model and PET Imaging) by sacrificing all mice at time point 120 min post injection. Blood, tumour, and major organs and tissues were collected, wet-weighed, and counted using an automated y-counter (Wallac 1282 CompuGamma g counter). The concentrations of radioactivity in blood, tumor, and organs and tissues were determined as percentage injected of total radioactivity per gram (% ID/g).

[2] = test system: SKOV3-TRip2 and SKOV3-ip1 subcutaneous tumours; assay: In vivo tumour model and PET imaging; design: species or system Balb/c nu/nu mice
Protocol: All animal experiments were performed in accordance with the United Kingdom Home Office Animal (scientific procedures) Act […]. […] SKOV3-ip1 and 4×10^6 and SKOV3-TRip2 cells were injected subcutaneously into female Balb/c nu/nu mice aged 6-9 weeks (Charles River Laboratories). Tumour dimensions were measured using an electronic calliper and the volume calculated using the following equation: volume=((π/6)×h×w×l), where h, w and l represent, height, width, and length, respectively. Imaging studies took place when tumour size reached approximately 150-250 mm^3. Mice were anaesthetized with isoflurane (2.5% in oxygen) and maintained at 37° C. using an air-heated scanning bed. A tail vein cannula was inserted and a 3.7 MBq bolus of PQM-H-001 was administered in approximately 100 μL of PBS. Immediately following injection, 120 min PET acquisition was performed on a Mediso nanoScan PET/CT system. […] Reconstructed images (Tera-Tomo 3D reconstruction algorithm; 4 iterations; 6 subsets; 400-600 keV; 0.4 mm voxel size) were analysed using VivoQuant software (v. 2.5, Invicro Ltd.). Regions of interest (ROIs) were drawn manually on the CT images and the radioactivity concentration in each ROI expressed as a percentage of the injected dose per mL of tissue volume (% ID/mL).

SKOV3-ip1 cells = assay: Cisplatin-induced growth inhibition, MTT assay, SKOV3-ip1; assay type: cell-based, human; conditions: MTT assay 72 h post treatment; second value of 'respectively' pair (SKOV3-ip1 as printed)
Protocol: FIG. 1a: Graph showing cisplatin-induced growth inhibition in SKOV3-ip1 cells (white circles) and SKOV3-TRip2 cells (filled squares) using an MTT assay 72 h post treatment (n=3-5).
The SKOV3-TRip2 cell line was generated through progressive exposure to paclitaxel (Duan et al., 1999) whereas the SKOV3-ip1 cell line remained untreated.

| Compound | Radiotracer retention, drug resistant versus drug-sensitive cells [1] | radiotracer retention in drug-resistant vs drug-sensitive tumours (in words) (Ex vivo biodistribution) | radiotracer retention in healthy tissues (in words) (Ex vivo biodistribution) | route of excretion (in words) (Ex vivo biodistribution) | Retention in treatment resistant SKOV3-TRip2 tumours compared to SKOV3-ip1 tumours ([2]; PET, subcutaneous tumours, 3.7 MBq i.v. bolus) | identification of drug resistant tumours in vivo (in words) ([2]; PET/CT imaging) | pEC50 (SKOV3-ip1 cells) |
| --- | --- | --- | --- | --- | --- | --- | --- |
| CS(=O)(=O)N1CCN(C(=O)c2cnc3ccc([18F])cc3c2-c2ccc(C3(C#N)CC3)cc2)CC1 [PQM-H-001, 1-(4-(6-(fluoro-^18F)-3-(4-(methylsulfonyl)piperazine-1-carbonyl)quinolin-4-yl)phenyl)cyclopropane-1-carbonitrile] | 9 times higher | substantially increased in the drug-resistant tumours compared to drug-sensitive tumours | Low radiotracer retention was observed in most healthy tissues, except the liver | excretion occurring via the urinary and hepatobiliary tract | > 5 × | can non-invasively identify drug resistant tumours in vivo | – |
| N.N.[Cl][Pt][Cl] [cisplatin] | – | – | – | – | – | – | 5.59 |
